Results from patent publication US6355799B1, “Substituted benzene compounds, process for their preparation, and herbicidal and defoliant compositions containing them” (ISK Americas Incorporated, priority 1997, dated 2002).

Assays:
Type in all cases: in vivo
[1] = system: upland rice (Oryza sp., var. Tebonnet, RICE); experiment: Pre-emerge test, crop safety; conditions: pre-emerge, 14 days after application; for phytotoxicity rating RICE (crop damage): scale 0-100; for phytotoxicity rating RICE: rating scale 0-100
Method in brief: (§1)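 Fourteen days after spraying, crop and weed injury was graded visually from 0, no effect, to 100, every plant dead. Test substances were dissolved in acetone and applied at 15–1000 g ai/ha with a flat-fan nozzle. Application was either pre-emergence, one day after sowing, or post-emergence at the 2–3 leaf stage.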

[2] = system: field corn (Zea mays L., var. Dekalb 535, CORN); experiment: Pre-emerge test, crop safety; conditions: pre-emerge, 14 days after application; for phytotoxicity rating CORN (crop damage): scale 0-100; for phytotoxicity rating CORN: rating scale 0-100
Method in brief: as §1

[3] = system: common ragweed (Ambrosia artemisizfolia L., AMBEL); experiment: Pre-emerge test, greenhouse herbicide activity screening; conditions: pre-emerge, 14 days after application
Method in brief: (§2)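 Visual ratings on a 0-100 scale (0 no damage, 100 all plants dead) were taken at 14 days after treatment. Rates of 15-1000 g ai/ha in acetone, 187 l/ha, were sprayed onto soil one day after planting (pre-emerge) or onto 2-3 leaf plants with 0.25% v/v surfactant (post-emerge).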

[4] = system: velvetleaf (Abutilon theophrasti, ABUTH); experiment: as above; conditions: pre-emerge, 14 days after application
Method in brief: as §2

[5] = system: large crabgrass (Digitaria sanguinalis, DIGSA); experiment: as above; conditions: pre-emerge, 14 days after application
Method in brief: as §2

[6] = system: lambsquarters (Chenopodium album, CHEAL); experiment: as above; conditions: pre-emerge, 14 days after application
Method in brief: as §2

[7] = system: johnsongrass (Sorghum halepense, SORHA); experiment: as above; conditions: pre-emerge, 14 days after application
Method in brief: as §2

[8] = system: green foxtail (Setaria viridis, SETVI); experiment: as above; conditions: pre-emerge, 14 days after application
Method in brief: as §2

[9] = system: ivyleaf morningglory (Ipomoea hederacea, IPOHE); experiment: as above; conditions: pre-emerge, 14 days after application
Method in brief: as §2

[10] = system: barnyardgrass (Echinochloa crus-galli, ECHCG); experiment: as above; conditions: pre-emerge, 14 days after application
Method in brief: as §2

[11] = system: sicklepod (Cassia obtusifolia, CASOB); experiment: as above; conditions: pre-emerge, 14 days after application
Method in brief: as §2

[12] = system: redroot pigweed (Amaranthus retroflexus, AMARE); experiment: as above; conditions: pre-emerge, 14 days after application
Method in brief: as §2

[13] = system: upland rice (Oryza sp., var. Tebonnet, RICE); experiment: Post-emerge test, crop safety; conditions: post-emerge, 14 days after application, rating scale 0-100
Method in brief: as §2

[14] = system: field corn (Zea mays L., var. Dekalb 535, CORN); experiment: Post-emerge test, crop safety; conditions: post-emerge, 14 days after application, rating scale 0-100
Method in brief: as §2

[15] = system: velvetleaf (Abutilon theophrasti, ABUTH); experiment: Post-emerge test, greenhouse herbicide activity screening; conditions: post-emerge, 14 days after application, rating scale 0-100
Method in brief: (§3)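 Rating: 0–100 visual injury, 14 DAA. Application: acetone, 187 l/ha, 15–1000 g ai/ha, flat-fan track sprayer with nozzle 40–45 cm above soil or canopy. Post-emerge runs used 0.25% v/v surfactant on 2–3 leaf plants.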

[16] = system: large crabgrass (Digitaria sanguinalis, DIGSA); experiment: as above; conditions: post-emerge, 14 days after application, rating scale 0-100
Method in brief: as §3

[17] = system: lambsquarters (Chenopodium album, CHEAL); experiment: as above; conditions: post-emerge, 14 days after application, rating scale 0-100
Method in brief: as §3

[18] = system: redroot pigweed (Amaranthus retroflexus, AMARE); experiment: as above; conditions: post-emerge, 14 days after application
Method in brief: as §3

[19] = system: johnsongrass (Sorghum halepense, SORHA); experiment: as above; conditions: post-emerge, 14 days after application, rating scale 0-100
Method in brief: as §3

[20] = system: green foxtail (Setaria viridis, SETVI); experiment: as above; conditions: post-emerge, 14 days after application, rating scale 0-100
Method in brief: as §3

[21] = system: ivyleaf morningglory (Ipomoea hederacea, IPOHE); experiment: as above; conditions: post-emerge, 14 days after application, rating scale 0-100
Method in brief: as §3

[22] = system: barnyardgrass (Echinochloa crus-galli, ECHCG); experiment: as above; conditions: post-emerge, 14 days after application, rating scale 0-100
Method in brief: as §3

[23] = system: sicklepod (Cassia obtusifolia, CASOB); experiment: as above; conditions: post-emerge, 14 days after application, rating scale 0-100
Method in brief: as §3

[24] = 250 g ai/ha, rating scale 0-100

## COc1c(Cl)cc(F)c(-n2c(=O)cc(C(F)(F)F)n(C)c2=O)c1NC(=O)c1ccc2c(C#N)cccc2c1 [2-163]
[1]; 63 g ai/ha
  phytotoxicity rating RICE (crop damage): 0
[1]; 250 g ai/ha
  phytotoxicity rating RICE (crop damage): 30
[2]; 63 g ai/ha
  phytotoxicity rating CORN (crop damage): 0
[2]; 250 g ai/ha
  phytotoxicity rating CORN (crop damage): 0
[3]; 63 g ai/ha, scale 0-100
  phytotoxicity rating AMBEL: 65
[3]; 250 g ai/ha, scale 0-100
  phytotoxicity rating AMBEL: 95
[4]; 63 g ai/ha, scale 0-100
  phytotoxicity rating ABUTH: 95
[4]; 250 g ai/ha, scale 0-100
  phytotoxicity rating ABUTH: 100
[5]; 63 g ai/ha, scale 0-100
  phytotoxicity rating DIGSA: 35
[5]; 250 g ai/ha, scale 0-100
  phytotoxicity rating DIGSA: 100
[6]; 63 g ai/ha, scale 0-100
  phytotoxicity rating CHEAL: 100
[6]; 250 g ai/ha, scale 0-100
  phytotoxicity rating CHEAL: 100
[7]; 63 g ai/ha, scale 0-100
  phytotoxicity rating SORHA: 0
[7]; 250 g ai/ha, scale 0-100
  phytotoxicity rating SORHA: 30
[8]; 63 g ai/ha, scale 0-100
  phytotoxicity rating SETVI: 60
[8]; 250 g ai/ha, scale 0-100
  phytotoxicity rating SETVI: 95
[9]; 63 g ai/ha, scale 0-100
  phytotoxicity rating IPOHE: 40
[9]; 250 g ai/ha, scale 0-100
  phytotoxicity rating IPOHE: 95
[10]; 63 g ai/ha, scale 0-100
  phytotoxicity rating ECHCG: 0
[10]; 250 g ai/ha, scale 0-100
  phytotoxicity rating ECHCG: 75
[11]; 63 g ai/ha, scale 0-100
  phytotoxicity rating CASOB: 10
[11]; 250 g ai/ha, scale 0-100
  phytotoxicity rating CASOB: 60
[12]; 63 g ai/ha, scale 0-100
  phytotoxicity rating AMARE: 100
[12]; 250 g ai/ha, scale 0-100
  phytotoxicity rating AMARE: 100
[13]; 63 g ai/ha
  RICE phytotoxicity rating (crop damage): 20
[13]; 250 g ai/ha
  RICE phytotoxicity rating (crop damage): 55
[14]; 63 g ai/ha
  CORN phytotoxicity rating (crop damage): 35
[14]; 250 g ai/ha
  CORN phytotoxicity rating (crop damage): 40
[15]; 63 g ai/ha
  ABUTH phytotoxicity rating: 99
[15]; 250 g ai/ha
  ABUTH phytotoxicity rating: 100
[16]; 63 g ai/ha
  DIGSA phytotoxicity rating: 30
[16]; 250 g ai/ha
  DIGSA phytotoxicity rating: 45
[17]; 63 g ai/ha
  CHEAL phytotoxicity rating: 100
[17]; 250 g ai/ha
  CHEAL phytotoxicity rating: 100
[18]; 63 g ai/ha, rating scale 0-100
  AMARE phytotoxicity rating: 100
[18]; [24]
  AMARE phytotoxicity rating: 100
[19]; 63 g ai/ha
  SORHA phytotoxicity rating: 0
[19]; 250 g ai/ha
  SORHA phytotoxicity rating: 10
[20]; 63 g ai/ha
  SETVI phytotoxicity rating: 50
[20]; 250 g ai/ha
  SETVI phytotoxicity rating: 60
[21]; 63 g ai/ha
  IPOHE phytotoxicity rating: 98
[21]; 250 g ai/ha
  IPOHE phytotoxicity rating: 95
[22]; 63 g ai/ha
  ECHCG phytotoxicity rating: 55
[22]; 250 g ai/ha
  ECHCG phytotoxicity rating: 70
[23]; 63 g ai/ha
  CASOB phytotoxicity rating: 90
[23]; 250 g ai/ha
  CASOB phytotoxicity rating: 90

## CCOC(=O)C(Cl)Cc1c(OC)c(Cl)cc(F)c1-n1nc(C(F)(F)F)n(C)c1=O (centres unmarked) [14-61]
[1]; 63 g ai/ha
  phytotoxicity rating RICE: 0
[1]; 250 g ai/ha
  phytotoxicity rating RICE: 0
[2]; 63 g ai/ha
  phytotoxicity rating CORN: 0
[2]; 250 g ai/ha
  phytotoxicity rating CORN: 0
[3]; 63 g ai/ha, rating scale 0-100
  phytotoxicity rating AMBEL: 0
[3]; [24]
  phytotoxicity rating AMBEL: 0
[4]; 63 g ai/ha, rating scale 0-100
  phytotoxicity rating ABUTH: 0
[4]; [24]
  phytotoxicity rating ABUTH: 40
[5]; 63 g ai/ha, rating scale 0-100
  phytotoxicity rating DIGSA: 0
[5]; [24]
  phytotoxicity rating DIGSA: 40
[6]; 63 g ai/ha, rating scale 0-100
  phytotoxicity rating CHEAL: 0
[6]; [24]
  phytotoxicity rating CHEAL: 80
[7]; 63 g ai/ha, rating scale 0-100
  phytotoxicity rating SORHA: 0
[7]; [24]
  phytotoxicity rating SORHA: 20
[8]; 63 g ai/ha, rating scale 0-100
  phytotoxicity rating SETVI: 0
[8]; [24]
  phytotoxicity rating SETVI: 60
[9]; 63 g ai/ha, rating scale 0-100
  phytotoxicity rating IPOHE: 0
[9]; [24]
  phytotoxicity rating IPOHE: 20
[10]; 63 g ai/ha, rating scale 0-100
  phytotoxicity rating ECHCG: 0
[10]; [24]
  phytotoxicity rating ECHCG: 0
[11]; 63 g ai/ha, rating scale 0-100
  phytotoxicity rating CASOB: 0
[11]; [24]
  phytotoxicity rating CASOB: 0
[12]; 63 g ai/ha, rating scale 0-100
  phytotoxicity rating AMARE: 30
[12]; [24]
  phytotoxicity rating AMARE: 95
[13]; 63 g ai/ha
  Post-emerge Herbicidal Activity RICE (crop damage rating): 0
[13]; 250 g ai/ha
  Post-emerge Herbicidal Activity RICE (crop damage rating): 30
[14]; 63 g ai/ha
  Post-emerge Herbicidal Activity CORN (crop damage rating): 0
[14]; 250 g ai/ha
  Post-emerge Herbicidal Activity CORN (crop damage rating): 70
[15]; 63 g ai/ha
  Post-emerge Herbicidal Activity ABUTH (phytotoxicity rating): 30
[15]; 250 g ai/ha
  Post-emerge Herbicidal Activity ABUTH (phytotoxicity rating): 60
[16]; 63 g ai/ha
  Post-emerge Herbicidal Activity DIGSA (phytotoxicity rating): 0
[16]; 250 g ai/ha
  Post-emerge Herbicidal Activity DIGSA (phytotoxicity rating): 70
[17]; 63 g ai/ha
  Post-emerge Herbicidal Activity CHEAL (phytotoxicity rating): 40
[17]; 250 g ai/ha
  Post-emerge Herbicidal Activity CHEAL (phytotoxicity rating): 75
[18]; 63 g ai/ha, rating scale 0-100 (0 no damage, 100 complete death)
  Post-emerge Herbicidal Activity AMARE (phytotoxicity rating): 20
[18]; [24]
  Post-emerge Herbicidal Activity AMARE (phytotoxicity rating): 60
[19]; 63 g ai/ha
  Post-emerge Herbicidal Activity SORHA (phytotoxicity rating): 0
[19]; 250 g ai/ha
  Post-emerge Herbicidal Activity SORHA (phytotoxicity rating): 20
[20]; 63 g ai/ha
  Post-emerge Herbicidal Activity SETVI (phytotoxicity rating): 0
[20]; 250 g ai/ha
  Post-emerge Herbicidal Activity SETVI (phytotoxicity rating): 20
[21]; 63 g ai/ha
  Post-emerge Herbicidal Activity IPOHE (phytotoxicity rating): 20
[21]; 250 g ai/ha
  Post-emerge Herbicidal Activity IPOHE (phytotoxicity rating): 50
[22]; 63 g ai/ha
  Post-emerge Herbicidal Activity ECHCG (phytotoxicity rating): 0
[22]; 250 g ai/ha
  Post-emerge Herbicidal Activity ECHCG (phytotoxicity rating): 60
[23]; 63 g ai/ha
  Post-emerge Herbicidal Activity CASOB (phytotoxicity rating): 0
[23]; 250 g ai/ha
  Post-emerge Herbicidal Activity CASOB (phytotoxicity rating): 30
